These results are taken from patent publication US20250296959A1, “B7-H3 TARGETING PEPTIDES AND CONSTRUCTS THEREOF” (Mariana Oncology Inc., priority 2024, published 2025).

Where two headings read alike, the source gives them in different places. Starred links: 1 amine or outer side, 2 acyl side, 3 side chain; linkers in the order of their positions; H or OH if unused. Positions of bridges follow the written chain, without caps; N, C: chain ends. Non-standard residues stand in square brackets, D forms with d. Residues, ends and D or L forms follow the SMILES beside them. Groups on a side chain read outwards from the residue. *: point of attachment. Ala(1-CH2CO2H-4-piperidyl) = N[C@@H](CC1CCN(CC(=O)O)CC1)C(=O)O; Ala(piperidin-4-yl) = O=C([C@H](CC1CCN([*:3])CC1)N[*:1])[*:2]; DOTA = O=C(O)CN1CCN(CC(=O)O)CCN(CC(=O)*)CCN(CC(=O)O)CC1; Trp(5-F) = N[C@@H](Cc1c[nH]c2ccc(F)cc12)C(=O)O; γGlu = O=C(O)[C@H](CCC(=O)[*:2])N[*:1]; 1Nal = N[C@@H](Cc1cccc2ccccc12)C(=O)O; Ala(4-THP) = N[C@@H](CC1CCOCC1)C(=O)O; Val(3-OH) = CC(C)(O)[C@H](N)C(=O)O; 4Pal = N[C@@H](Cc1ccncc1)C(=O)O; PEG4 = NCCOCCOCCOCCOCCC(=O)O; Tle = CC(C)(C)[C@H](N)C(=O)O; hLeu = CC(C)CC[C@H](N)C(=O)O

The test system of assay [1] is Calu-6 cell line. Briefly: Cell associated (bound) fraction of [177Lu]Lu-labeled peptide in Calu-6 cells. The conditions noted are these: 1 hour, 37° C. The format is cell-based, Human. In short, it runs like this: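 Detached B7-H3-expressing human lung cancer cells at 5 million/mL were exposed for 1 hour at 37 °C to 0.8 μCi of the 177Lu-labelled peptide, which was formulated in 1% PBSA after labelling at 80 °C, pH ~5. Supernatant and two cold washes counted as unbound, and resuspended cells gamma-counted as the cell-associated fraction.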

Assay [2] relates to Calu-6 cell line. The assay can be described thus: Net internalization of [177Lu]Lu-labeled peptide in Calu-6 cells. The assay is classed as cell-based, Human. The conditions noted are these: 1 hour, 37° C., glycine pH 2.5 acid wash. A digest of the protocol:
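Calu-6 cells, human non-engineered lung cancer expressing B7-H3, resuspended in 1% PBSA at 5 million cells/mL and incubated with the 177Lu-labeled conjugate (labeled at 80 °C, pH ~5, RP-HPLC checked). Gamma counting of the bound fraction, then of the pellet after two glycine pH 2.5 acid strips and NaOH lysis, gives internalized activity.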

For a further assay, the target named is T1, human 4lg B7-H3 (Homo sapiens, UniProt Q5ZPR3).
T1 sequence (Q5ZPR3 29-534): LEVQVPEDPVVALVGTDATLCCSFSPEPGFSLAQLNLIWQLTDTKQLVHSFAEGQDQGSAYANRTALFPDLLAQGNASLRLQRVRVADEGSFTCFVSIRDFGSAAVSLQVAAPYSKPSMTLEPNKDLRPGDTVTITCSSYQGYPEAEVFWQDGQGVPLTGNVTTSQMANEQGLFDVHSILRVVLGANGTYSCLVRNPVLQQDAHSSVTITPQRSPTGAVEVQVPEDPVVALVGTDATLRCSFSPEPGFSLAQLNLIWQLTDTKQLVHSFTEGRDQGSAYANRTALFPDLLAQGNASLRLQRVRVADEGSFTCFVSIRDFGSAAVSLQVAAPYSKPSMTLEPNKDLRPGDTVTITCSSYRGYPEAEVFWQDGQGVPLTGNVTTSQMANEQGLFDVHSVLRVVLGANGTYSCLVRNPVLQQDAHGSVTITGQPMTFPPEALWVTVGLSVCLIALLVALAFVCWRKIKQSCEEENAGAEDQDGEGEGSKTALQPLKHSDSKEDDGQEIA
Briefly: Affinity determination by surface plasmon resonance (SPR) to 4Ig B7-H3. The conditions noted are these: 4Ig B7-H3. (In general: In SPR one partner is held on a chip, and binding of the other changes the refractive index at the surface.)

Where [3] appears, read: read-out: SPR KD—37° C., 37° C. flow cell temperature.
The mark [4] stands for this setting: read-out: SPR KD—25° C., 25° C. flow cell temperature.
Where [5] appears, read: SPR KD—25° C., 25° C. flow cell temperature.

For `CC(=O)N[C@@H](CCC(C)C)C(=O)N[C@@H](Cc1ccc(O)cc1)C(=O)N[C@H]1CSSC[C@@H](C(=O)N[C@@H](Cc2c[nH]c3ccc(F)cc23)C(=O)N[C@@H](Cc2ccccc2)C(=O)N[C@H](C(=O)N[C@H](CCCCNC(=O)[C@@H](CCC(=O)O)NC(=O)CN2CCN(CC(=O)O)CCN(CC(=O)O)CCN(CC(=O)O)CC2)C(=O)O)C(C)(C)O)NC(=O)[C@H](Cc2ccc(O)cc2)NC(=O)[C@H](C(C)C)NC(=O)[C@H](CC(=O)O)NC(=O)[C@H](CC2CCOCC2)NC(=O)[C@H](CC2CCNCC2)NC(=O)CNC(=O)[C@H](C(C)(C)C)NC1=O` [compound 429, Ac-hLeu-Y-C-Tbg-G-PipAla-ThpA-D-V-Y-C-5FW-F-hydroxyVal-dLys(dGlu-DOTA)-COOH] (Ac-[hLeu]YC[Tle]G[Ala(piperidin-4-yl)][Ala(4-THP)]DVYC[Trp(5-F)]F[Val(3-OH)][dK]([dE-DOTA])-OH; disulfide 3-11), the “% cell associated fraction” value in the assay with Calu-6 cell line [1] is “B (25<%≤50)”. For the same compound, the “% net internalization” value in the assay on Calu-6 cell line [2] is “A (%≤25)”. Further, at human 4lg B7-H3 (setting [3]), the Kd (commonly the free concentration of one partner at which half of the binding sites on the other are occupied at equilibrium, for simple one-to-one binding) is < 1 nM.

With `CC(=O)N[C@@H](CCC(C)C)C(=O)N[C@@H](Cc1ccc(O)cc1)C(=O)N[C@H]1CSSC[C@@H](C(=O)N[C@@H](Cc2cccc3ccccc23)C(=O)N[C@@H](Cc2ccccc2)C(=O)N[C@H](C(=O)N[C@H](CCCCNC(=O)CN2CCN(CC(=O)O)CCN(CC(=O)O)CCN(CC(=O)O)CC2)C(N)=O)[C@@H](C)O)NC(=O)[C@H](Cc2ccc(O)cc2)NC(=O)[C@H](C(C)C)NC(=O)[C@H](CC(=O)O)NC(=O)[C@H](Cc2ccc(O)cc2)NC(=O)[C@H](CCCCN)NC(=O)CNC(=O)[C@H](C(C)(C)C)NC1=O` [compound 179, Ac-hLeu-Y-C-Tbg-G-K-Y-D-V-Y-C-1Nal-F-Thr-dLys(DOTA)-CONH2] (Ac-[hLeu]YC[Tle]GKYDVYC[1Nal]FT[dK](DOTA)-NH2; disulfide 3-11), in the assay with Calu-6 cell line [1], the “% cell associated fraction” value is on record as “B (25<%≤50)”. The “% net internalization” value with Calu-6 cell line [2] is “A (%≤25)”. Besides, the Kd at human 4lg B7-H3 (setting [4]) was < 1 nM.

As to `CC(=O)N[C@@H](CCC(C)C)C(=O)N[C@@H](Cc1ccc(O)cc1)C(=O)N[C@H]1CSSC[C@@H](C(=O)N[C@@H](Cc2cccc3ccccc23)C(=O)N[C@@H](Cc2ccccc2)C(=O)N[C@H](C(=O)N[C@H](CCCCNC(=O)CN2CCN(CC(=O)O)CCN(CC(=O)O)CCN(CC(=O)O)CC2)C(N)=O)[C@@H](C)O)NC(=O)[C@H](Cc2ccc(O)cc2)NC(=O)[C@H](C(C)C)NC(=O)[C@H](CC(=O)O)NC(=O)[C@H](Cc2ccc(O)cc2)NC(=O)[C@H](CCCCN)NC(=O)CNC(=O)[C@H](C(C)C)NC1=O` [compound 158, Ac-hLeu-Y-C-V-G-K-Y-D-V-Y-C-1Nal-F-Thr-dLys(DOTA)-CONH2] (Ac-[hLeu]YCVGKYDVYC[1Nal]FT[dK](DOTA)-NH2; disulfide 3-11), the “% cell associated fraction” value with Calu-6 cell line [1] was “C (%>50)”. Further, in the assay on Calu-6 cell line [2], the “% net internalization” value is given as “B (25<%≤50)”. The Kd at human 4lg B7-H3 (setting [5]) was < 1 nM.

Turning to `CC(=O)N[C@@H](CCC(C)C)C(=O)N[C@@H](Cc1ccc(O)cc1)C(=O)N[C@H]1CSSC[C@@H](C(=O)N[C@@H](Cc2c[nH]c3ccccc23)C(=O)N[C@@H](Cc2ccccc2)C(=O)N[C@H](C(=O)N[C@H](CCCCNC(=O)CN2CCN(CC(=O)O)CCN(CC(=O)O)CCN(CC(=O)O)CC2)C(N)=O)[C@@H](C)O)NC(=O)[C@H](Cc2ccc(O)cc2)NC(=O)[C@H](C(C)C)NC(=O)[C@H](CC(=O)O)NC(=O)[C@H](Cc2ccc(O)cc2)NC(=O)[C@H](CCCCN)NC(=O)CNC(=O)[C@H](C(C)(C)C)NC1=O` [compound 72, Ac-hLeu-Y-C-Tbg-G-K-Y-D-V-Y-C-W-F-Thr-dLys(DOTA)-CONH2] (Ac-[hLeu]YC[Tle]GKYDVYCWFT[dK](DOTA)-NH2; disulfide 3-11), the “% cell associated fraction” value in the assay with Calu-6 cell line [1] is on record as “C (%>50)”. Also, the “% net internalization” value in the assay with Calu-6 cell line [2] is reported as “A (%≤25)”. In addition, the Kd on human 4lg B7-H3 (setting [4]) is < 1 nM.

Take `CC(=O)N[C@@H](CCC(C)C)C(=O)N[C@@H](Cc1ccc(O)cc1)C(=O)N[C@H]1CSSC[C@@H](C(=O)N[C@@H](Cc2c[nH]c3ccc(F)cc23)C(=O)N[C@@H](Cc2ccccc2)C(=O)N[C@H](C(=O)N[C@H](CO)C(N)=O)C(C)(C)O)NC(=O)[C@H](Cc2ccc(O)cc2)NC(=O)[C@H](C(C)C)NC(=O)[C@H](CC(=O)O)NC(=O)[C@H](CC2CCOCC2)NC(=O)[C@H](CC2CCN(C(=O)CCOCCOCCOCCOCCNC(=O)CN3CCN(CC(=O)O)CCN(CC(=O)O)CCN(CC(=O)O)CC3)CC2)NC(=O)CNC(=O)[C@H](C(C)(C)C)NC1=O` [compound 407, Ac-hLeu-Y-C-Tbg-G-Pip(PEG4-DOTA)Ala-ThpA-D-V-Y-C-5FW-F-hydroxyVal-dSer-CONH2] (Ac-[hLeu]YC[Tle]G[Ala(piperidin-4-yl)]([PEG4-DOTA])[Ala(4-THP)]DVYC[Trp(5-F)]F[Val(3-OH)][dS]-NH2; disulfide 3-11): the “% cell associated fraction” value in the assay on Calu-6 cell line [1] is on record as “C (%>50)”. In addition, the “% net internalization” value in the assay with Calu-6 cell line [2] is given as “A (%≤25)”. For the same compound, the Kd at human 4lg B7-H3 (setting [3]) was < 1 nM.

Regarding `CC(=O)N[C@@H](CCC(C)C)C(=O)N[C@@H](Cc1ccc(O)cc1)C(=O)N[C@H]1CSSC[C@@H](C(=O)N[C@@H](Cc2c[nH]c3ccc(F)cc23)C(=O)N[C@@H](Cc2ccccc2)C(=O)N[C@H](C(=O)N[C@H](CCCCNC(=O)CN2CCN(CC(=O)O)CCN(CC(=O)O)CCN(CC(=O)O)CC2)C(=O)O)C(C)(C)O)NC(=O)[C@H](Cc2ccc(O)cc2)NC(=O)[C@H](C(C)C)NC(=O)[C@H](CC(=O)O)NC(=O)[C@H](CC2CCOCC2)NC(=O)[C@H](CC2CCN(CC(=O)O)CC2)NC(=O)CNC(=O)[C@H](C(C)(C)C)NC1=O` [compound 339, Ac-hLeu-Y-C-Tbg-G-[Pip(CH2CO2H)Ala]-ThpA-D-V-Y-C-5FW-F-hydroxyVal-dLys(DOTA)-COOH] (Ac-[hLeu]YC[Tle]G[Ala(1-CH2CO2H-4-piperidyl)][Ala(4-THP)]DVYC[Trp(5-F)]F[Val(3-OH)][dK](DOTA)-OH; disulfide 3-11), the “% cell associated fraction” value in the assay with Calu-6 cell line [1] was “C (%>50)”. Further, the “% net internalization” value with Calu-6 cell line [2] is “B (25<%≤50)”. Moreover, at human 4lg B7-H3 (setting [3]), the Kd was < 1 nM.

Regarding `CC(=O)N[C@@H](CCC(C)C)C(=O)N[C@@H](Cc1ccc(O)cc1)C(=O)N[C@H]1CSSC[C@@H](C(=O)N[C@@H](Cc2c[nH]c3ccc(F)cc23)C(=O)N[C@@H](Cc2ccccc2)C(=O)N[C@H](C(=O)N[C@H](CCCCNC(=O)CC[C@H](NC(=O)CN2CCN(CC(=O)O)CCN(CC(=O)O)CCN(CC(=O)O)CC2)C(=O)O)C(=O)O)C(C)(C)O)NC(=O)[C@H](Cc2ccc(O)cc2)NC(=O)[C@H](C(C)C)NC(=O)[C@H](CC(=O)O)NC(=O)[C@H](CC2CCOCC2)NC(=O)[C@H](CC2CCNCC2)NC(=O)CNC(=O)[C@H](C(C)(C)C)NC1=O` [compound 440, Ac-hLeu-Y-C-Tbg-G-PipAla-ThpA-D-V-Y-C-5FW-F-hydroxyVal-dLys(gGlu-DOTA)-COOH] (Ac-[hLeu]YC[Tle]G[Ala(piperidin-4-yl)][Ala(4-THP)]DVYC[Trp(5-F)]F[Val(3-OH)][dK]([γGlu-DOTA])-OH; disulfide 3-11), the “% cell associated fraction” value in the assay on Calu-6 cell line [1] is “B (25<%≤50)”. The “% net internalization” value with Calu-6 cell line [2] is “A (%≤25)”. The Kd on human 4lg B7-H3 (setting [3]) is < 1 nM.

For the compound `CC(=O)N[C@@H](CCC(C)C)C(=O)N[C@@H](Cc1ccc(O)cc1)C(=O)N[C@H]1CSSC[C@@H](C(=O)N[C@@H](Cc2cccc3ccccc23)C(=O)N[C@@H](Cc2ccccc2)C(=O)N2CCC[C@H]2C(N)=O)NC(=O)[C@H](Cc2ccc(O)cc2)NC(=O)[C@H](C(C)C)NC(=O)[C@H](CC(=O)O)NC(=O)[C@H](Cc2ccncc2)NC(=O)[C@H](CCCCNC(=O)CC[C@H](NC(=O)CC[C@H](NC(=O)CN2CCN(CC(=O)O)CCN(CC(=O)O)CCN(CC(=O)O)CC2)C(=O)O)C(=O)O)NC(=O)CNC(=O)[C@H](C(C)(C)C)NC1=O` [compound 253, Ac-hLeu-Y-C-Tbg-G-Lys(gE-gE-DOTA)-4PyA-D-V-Y-C-1Nal-F-Pro-CONH2] (Ac-[hLeu]YC[Tle]GK([γGlu-γGlu-DOTA])[4Pal]DVYC[1Nal]FP-NH2; disulfide 3-11), the “% cell associated fraction” value in the assay with Calu-6 cell line [1] is “A (%≤25)”. Also, the “% net internalization” value in the assay with Calu-6 cell line [2] was “A (%≤25)”. The Kd on human 4lg B7-H3 (setting [5]) is 1 to 10 nM.
